Drawing on PubChem BioAssay (NCI), this text covers TGI and GI50 for 13 compounds.

What all share (assay): DTP human tumour cell line panel, 48 h
In assay [1] the test system is ACHN renal.
Assay [2] has as its system NCI-H460 lung.
Assay [3] relates to SW-620 colon.
In assay [4] the test system is OVCAR-5 ovarian.
Assay [5] relates to SF-295 CNS.
Assay [6] has as its system KM12 colon.
For assay [7], the system named is UACC-62 melanoma.
Assay [8] relates to M14 melanoma.
In assay [9] the test system is MOLT-4 leukemia.
For assay [10], the system named is UO-31 renal.

Structures are written as SMILES.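 Test compounds were applied to cells in 96-well plates for 48 hours at 5 doses. GI50 = concentration required for 50% inhibition of growth. TGI: total growth inhibition.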

`CCOC(=O)c1c2c(c(O)c3ccccc3c(O)n(-c3ccc(C)cc3)c1C)C(=O)C=CC2=O`: the TGI (usually the concentration at which net growth stops) in assay [1] was 38.4 µM; in assay [2] it was 84.6 µM; in [3], 51.5 µM; in assay [4], greater than 100 µM; in [5] it was 37 µM; in [6] it was 81.7 µM. The TGI is 71.7 µM in [7], 44.8 µM in assay [8], 29.4 µM in assay [9] and greater than 100 µM in assay [10].

For `C[C@@H]1CC[C@H]2C(COC/C=C/COCC3=C(C(F)(F)F)O[C@@H]4O[C@@]5(C)CC[C@H]6[C@H](C)CC[C@@H]3[C@@]46OO5)=C(C(F)(F)F)O[C@@H]3O[C@@]4(C)CC[C@@H]1[C@]32OO4`, the GI50 (as a rule, the concentration at which growth is held to half of that of the control) was 46.8 nM in assay [1]; 22.6 nM in assay [2]; 10.1 nM in [3]; 17.5 nM in assay [4]; less than 24.4 nM in assay [5]; less than 10 nM in assay [6]. For the same compound, the 50% growth inhibitory concentration (GI50) in assay [7] was 78.1 nM; in [9], less than 10 nM; in [10], 786 nM. Moreover, the TGI in assay [1] was 0.753 µM; in [2] it was greater than 100 µM; in assay [3], greater than 100 µM; in assay [4] it was greater than 100 µM; in assay [6] it was 0.0328 µM; in assay [7], greater than 100 µM. Also, the TGI in assay [8] is greater than 100 µM; in [9], 40.6 µM; in assay [10], greater than 100 µM.

Consider `CC(C)(C)C1CCC2(CC1)CCN(CCCN1CCOCC1)CC2`, for which the TGI is greater than 100 µM in assay [1]; greater than 100 µM in assay [2]; greater than 59.3 µM in assay [3]; greater than 100 µM in assay [4]; greater than 61.7 µM in [5]; greater than 100 µM in assay [6]. Besides, the TGI in [7] is 25 µM; in assay [8] it was 27.8 µM; in [9], greater than 65.4 µM; in assay [10], greater than 100 µM.

On to `O=C1c2ccccc2C(=O)c2c(NCCNC(=O)C3CCCN3)ccc(NCCNC(=O)C3CCCN3)c21` (stereo not drawn), for which the TGI in [1] is greater than 100 µM; in [3] it was greater than 100 µM; in assay [4] it was greater than 100 µM; in [5], greater than 100 µM; in [6], 49.8 µM; in assay [7] it was greater than 100 µM. The TGI in assay [8] is greater than 100 µM; in assay [9], 84.2 µM; in assay [10] it was greater than 100 µM.

For the compound `COc1cnc2c(c1)C(=O)c1c-2n(CCCN2CCNCC2)c(=O)c2cc(Cl)ccc12`, the GI50 in [1] is 181 nM; in [2] it was 44.9 nM; in assay [3], 85.6 nM; in [4], 1740 nM; in assay [6], 550 nM; in assay [10], 1030 nM. The TGI is 1.27 µM in assay [1]; 1.29 µM in [2]; 1.82 µM in assay [3]; 3.31 µM in [4]; 2.04 µM in assay [6]; 2.41 µM in assay [10].

Take `Cn1cnc([N+](=O)[O-])c1SCC(=O)O`: the TGI in assay [1], in [2], in assay [3], in [4], in assay [5] and in assay [6] was greater than 100 µM throughout. In addition, the TGI in assay [7], in [8] and in assay [10] was greater than 100 µM each time.

As for `C[C@H]1CCC/C=C/[C@@H]2C[C@H](O)C[C@H]2[C@H](O)[C@@H](S(=O)CCN)CC(=O)O1` (stereo partly drawn), the GI50 in [1] is 121 nM; in [2], 11.9 nM; in [3] it was 57.6 nM; in assay [4] it was 47.9 nM; in [5] it was 117 nM; in assay [6], less than 13.9 nM. Further, the GI50 in assay [7] is 19.7 nM; in [8], 29.4 nM; in assay [9], 94.7 nM; in [10], 26.9 nM. For the same compound, the TGI in assay [1] is 2.84 µM; in assay [2] it was 0.0743 µM; in assay [5] it was greater than 100 µM; in assay [7] it was greater than 82 µM; in [10], 0.446 µM.

Regarding `C[n+]1cccc(/C=C/c2ccc3cccc(O)c3n2)c1`, the TGI in assay [1], in assay [2], in [3], in assay [4], in assay [5] and in assay [6] was greater than 100 µM each time. The TGI in assay [7], in assay [8], in [9] and in assay [10] was greater than 100 µM throughout.

Regarding `O=C(c1cc(Br)ccc1O)c1cc(Br)ccc1O`, the TGI in [1] is 29.9 µM; in assay [2], 32.1 µM; in assay [3], 30.6 µM; in [4] it was 33.3 µM; in assay [5] it was 33.7 µM; in assay [6], 30.8 µM. Besides, the TGI in [7] was determined as 25.8 µM; in assay [8], 29.1 µM; in [9] it was 39 µM; in assay [10] it was 27.4 µM.

With `CCOC(=O)N1c2ccccc2S(=O)(=O)c2ccccc21`, the TGI in [1], in [2], in assay [3], in assay [4], in assay [5] and in assay [6] was greater than 100 µM each time. The concentration for total growth inhibition (TGI) in assay [7], in [8], in assay [9] and in assay [10] was greater than 100 µM in each case.

As to `Oc1cc(O)cc(/C=C/c2ccc(O)c(O)c2)c1`, the TGI was 60.5 µM in assay [2]; greater than 51.8 µM in assay [3]; 20.7 µM in [4]; 60 µM in assay [5]; 11.2 µM in [6]; 15 µM in assay [7]. Further, the values for the TGI in assay [9] and in assay [10] were greater than 46.5 µM and 39.3 µM, respectively.

`Cc1cc(=O)[nH]c(NN2C(Cl)C(=O)C2c2cccc([N+](=O)[O-])c2)n1` (stereo not drawn): the TGI was greater than 100 µM in assay [1]; greater than 100 µM in assay [2]; greater than 100 µM in assay [3]; greater than 100 µM in [4]; 80.9 µM in assay [6]; 42.5 µM in assay [7]. Besides, the results for the TGI in [8], in assay [9] and in assay [10] were 32.2 µM, 44.9 µM and greater than 100 µM, respectively.

On to `CN(C)c1ccc(C2CC(=O)C(C#N)=C(c3ccccc3)NN2C)cc1` (stereo not drawn), for which the TGI in [1] was greater than 100 µM; in assay [2], 36.9 µM; in [3], greater than 100 µM; in [4] it was greater than 100 µM; in assay [5], greater than 100 µM; in assay [6], greater than 100 µM. Further, the TGI is 35.5 µM in assay [8] and greater than 100 µM in [9].
